Assays:
Type in all cases: biochemical
human JAK2 = human JAK2 (Homo sapiens (Human), UniProt O60674); assay: In vitro JAK kinase assay (HTRF, phosphorylation of a biotinylated peptide), JAK2; set-up: key to JAK2 IC50 (nM): +indicates an IC50 of ≦100 nM; ++indicates an IC50 of ≦1000 nM; +++indicates an IC50 of ≦2000 nM; ++++indicates an IC50 of >2000 nM; +++++indicates that the IC50 was greater than the highest concentration tested; settings: 1 mM ATP
Outline: (§1)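 Baculovirus-expressed catalytic domains (JAK1 a.a. 837-1142, JAK2 a.a. 828-1132) phosphorylate 500 nM biotinylated peptide at 1 mM ATP, Tris pH 7.8, 1 h at room temperature. EDTA stop and HTRF detection with Eu-Py20/SA-APC; IC50 values derived.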

human JAK1 [1] = assay: In vitro JAK kinase assay (HTRF, phosphorylation of a biotinylated peptide), JAK1; settings: ratio of IC50s, 1 mM ATP
Outline: as §1

human JAK1 [2] = target: human JAK1 (Homo sapiens, UniProt P23458); assay: as above; settings: 1 mM ATP
Outline: as §1

Sequence of human JAK2 (O60674 828-1132): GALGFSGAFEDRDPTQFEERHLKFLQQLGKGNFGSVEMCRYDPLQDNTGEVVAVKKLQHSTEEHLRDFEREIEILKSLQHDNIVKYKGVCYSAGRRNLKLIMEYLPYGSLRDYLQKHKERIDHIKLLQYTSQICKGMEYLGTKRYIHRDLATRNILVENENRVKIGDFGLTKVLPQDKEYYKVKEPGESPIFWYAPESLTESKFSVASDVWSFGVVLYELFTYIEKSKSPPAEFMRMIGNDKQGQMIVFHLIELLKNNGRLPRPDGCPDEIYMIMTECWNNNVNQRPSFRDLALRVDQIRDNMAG

SMILES: C[C@@H](O)c1nc2cnc3ccsc3c2n1[C@H]1CCN(C(=O)CC#N)C1 [Example 63, 3-((3S)-3-{2-[(1R)-1-Hydroxyethyl]-1H-imidazo[4,5-d]thieno[3,2-b]pyridin-1-yl}pyrrolidin-1-yl)-3-oxopropanenitrile]
- JAK2 IC50 (nM) (human JAK2): +++++
- JAK2/JAK1 (human JAK1 [1]): >6
- IC50 (human JAK1 [2]): ≤ 2000 nM

SMILES: C[C@@H](O)c1nc2cnc3ccsc3c2n1[C@H]1CCN(CCCC(F)(F)F)C1 [Example 64, (1R)-1-{1-[(3S)-1-(4,4,4-Trifluorobutyl)pyrrolidin-3-yl]-1H-imidazo[4,5-d]thieno[3,2-b]pyridin-2-yl}ethanol]
- JAK2 IC50 (nM) (human JAK2): +++++
- JAK2/JAK1 (human JAK1 [1]): >10
- IC50 (human JAK1 [2]): ≤ 100 nM

SMILES: C[C@@H](O)c1nc2cnc3ccsc3c2n1[C@H]1CCN(CCCC#N)C1 [Example 65, 4-((3S)-3-{2-[(1R)-1-Hydroxyethyl]-1H-imidazo[4,5-d]thieno[3,2-b]pyridin-1-yl}pyrrolidin-1-yl)butanenitrile]
- JAK2 IC50 (nM) (human JAK2): +++++
- JAK2/JAK1 (human JAK1 [1]): >10
- IC50 (human JAK1 [2]): ≤ 1000 nM

SMILES: C[C@@H](O)c1nc2cnc3ccsc3c2n1[C@H]1CCN(CCCCC#N)C1 [Example 66, 5-((3S)-3-{2-[(1R)-1-Hydroxyethyl]-1H-imidazo[4,5-d]thieno[3,2-b]pyridin-1-yl}pyrrolidin-1-yl)pentanenitrile]
- JAK2 IC50 (nM) (human JAK2): +++++
- JAK2/JAK1 (human JAK1 [1]): >10
- IC50 (human JAK1 [2]): ≤ 1000 nM

SMILES: C[C@@H](O)c1nc2cnc3ccsc3c2n1[C@H]1CC[C@H](CC#N)[C@H](N)C1 [Example 67, ((1R,2R,4S)-2-Amino-4-{2-[(1R)-1-hydroxyethyl]-1H-imidazo[4,5-d]thieno[3,2-b]pyridin-1-yl}cyclohexyl)acetonitrile]
- IC50 (human JAK2): > 2000 nM
- JAK2/JAK1 (human JAK1 [1]): >10
- IC50 (human JAK1 [2]): ≤ 1000 nM

SMILES: CC(N)c1nc2cnc3ccsc3c2n1[C@H]1CC[C@H](CC#N)OC1.O=C(O)C(F)(F)F (stereo partly drawn) [Example 68, {(2R,5S)-5-[2-(1-Aminoethyl)-1H-imidazo[4,5-d]thieno[3,2-b]pyridin-1-yl]tetrahydro-2H-pyran-2-yl}acetonitrile trifluoroacetate]
- IC50 (human JAK2): ≤ 2000 nM
- JAK2/JAK1 (human JAK1 [1]): >10
- IC50 (human JAK1 [2]): ≤ 100 nM

SMILES: CC(=O)NC(C)c1nc2cnc3ccsc3c2n1[C@H]1CC[C@H](CC#N)OC1 (stereo partly drawn) [Example 69, N-(1-{1-[(3S,6R)-6-(Cyanomethyl)tetrahydro-2H-pyran-3-yl]-1H-imidazo[4,5-d]thieno[3,2-b]pyridin-2-yl}ethyl)acetamide]
- JAK2 IC50 (nM) (human JAK2): +++++
- JAK2/JAK1 (human JAK1 [1]): >10
- IC50 (human JAK1 [2]): ≤ 1000 nM

SMILES: CNC(C)c1nc2cnc3ccsc3c2n1[C@H]1CC[C@H](CC#N)OC1 (stereo partly drawn) [Example 70, ((2R,5S)-5-{2-[1-(Methylamino)ethyl]-1H-imidazo[4,5-d]thieno[3,2-b]pyridin-1-yl}tetrahydro-2H-pyran-2-yl)acetonitrile]
- IC50 (human JAK2): > 2000 nM
- JAK2/JAK1 (human JAK1 [1]): >10
- IC50 (human JAK1 [2]): ≤ 1000 nM

SMILES: CC(F)c1nc2cnc3ccsc3c2n1[C@H]1CC[C@H](CC#N)OC1 (stereo partly drawn) [Example 71, {(2R,5S)-5-[2-(1-Fluoroethyl)-1H-imidazo[4,5-d]thieno[3,2-b]pyridin-1-yl]tetrahydro-2H-pyran-2-yl}acetonitrile]
- IC50 (human JAK2): ≤ 1000 nM
- JAK2/JAK1 (human JAK1 [1]): >10
- IC50 (human JAK1 [2]): ≤ 100 nM

SMILES: N#CCc1nc2cnc3ccsc3c2n1[C@H]1CC[C@H](CC#N)OC1 [Example 73, {(2R,5S)-5-[2-(Cyanomethyl)-1H-imidazo[4,5-d]thieno[3,2-b]pyridin-1-yl]tetrahydro-2H-pyran-2-yl}acetonitrile]
- IC50 (human JAK2): ≤ 1000 nM
- JAK2/JAK1 (human JAK1 [1]): >10
- IC50 (human JAK1 [2]): ≤ 100 nM

SMILES: N#CCc1nc2cnc3ccsc3c2n1[C@H]1CC[C@@H](CC#N)OC1 [Example 74, {(2S,5S)-5-[2-(Cyanomethyl)-1H-imidazo[4,5-d]thieno[3,2-b]pyridin-1-yl]tetrahydro-2H-pyran-2-yl}acetonitrile]
- JAK2 IC50 (nM) (human JAK2): +++++
- JAK2/JAK1 (human JAK1 [1]): >10
- IC50 (human JAK1 [2]): ≤ 1000 nM

SMILES: C[C@@H](O)c1nc2cnc3ccsc3c2n1[C@H]1CC[C@H](CNS(C)(=O)=O)OC1 [Example 75, N-[((2R,5S)-5-{2-[(1R)-1-Hydroxyethyl]-1H-imidazo[4,5-d]thieno[3,2-b]pyridin-1-yl}tetrahydro-2H-pyran-2-yl)methyl]methanesulfonamide]
- IC50 (human JAK2): ≤ 2000 nM
- JAK2/JAK1 (human JAK1 [1]): >10
- IC50 (human JAK1 [2]): ≤ 100 nM

SMILES: CC(C)OC(=O)NC[C@H]1CC[C@H](n2c([C@@H](C)O)nc3cnc4ccsc4c32)CO1 [Example 76, Isopropyl [((2R,5S)-5-{2-[(1R)-1-hydroxyethyl]-1H-imidazo[4,5-d]thieno[3,2-b]pyridin-1-yl}tetrahydro-2H-pyran-2-yl)methyl]carbamate]
- IC50 (human JAK2): ≤ 2000 nM
- JAK2/JAK1 (human JAK1 [1]): >10
- IC50 (human JAK1 [2]): ≤ 100 nM

SMILES: COC(=O)NC[C@H]1CC[C@H](n2c([C@@H](C)O)nc3cnc4ccsc4c32)CC1 [Example 78, Methyl [(trans-4-{2-[(1R)-1-hydroxyethyl]-1H-imidazo[4,5-d]thieno[3,2-b]pyridin-1-yl}cyclohexyl)methyl]carbamate]
- IC50 (human JAK2): ≤ 1000 nM
- JAK2/JAK1 (human JAK1 [1]): >10
- IC50 (human JAK1 [2]): ≤ 100 nM

SMILES: CC(=O)NC[C@H]1CC[C@H](n2c([C@@H](C)O)nc3cnc4ccsc4c32)CC1 [Example 79, N-[(trans-4-{2-[(1R)-1-Hydroxyethyl]-1H-imidazo[4,5-b]thieno[3,2-b]pyridin-1-yl}cyclohexyl)methyl]acetamide]
- IC50 (human JAK2): ≤ 2000 nM
- JAK2/JAK1 (human JAK1 [1]): >10
- IC50 (human JAK1 [2]): ≤ 100 nM

SMILES: C[C@@H](O)c1nc2cnc3ccsc3c2n1[C@H]1CC[C@H](CNS(C)(=O)=O)CC1 [Example 80, N-[(trans-4-{2-[(1R)-1-Hydroxyethyl]-1H-imidazo[4,5-d]thieno[3,2-b]pyridin-1-yl}cyclohexyl)methyl]methanesulfonamide]
- IC50 (human JAK2): ≤ 2000 nM
- JAK2/JAK1 (human JAK1 [1]): >10
- IC50 (human JAK1 [2]): ≤ 100 nM

SMILES: C[C@@H](O)c1nc2cnc3ccsc3c2n1[C@H]1CC[C@H](CNC(=O)N(C)C)CC1 [Example 81, N′-[(trans-4-{2-[(1R)-1-Hydroxyethyl]-1H-imidazo[4,5-d]thieno[3,2-b]pyridin-1-yl}cyclohexyl)methyl]-N,N-dimethylurea]
- IC50 (human JAK2): > 2000 nM
- JAK2/JAK1 (human JAK1 [1]): >10
- IC50 (human JAK1 [2]): ≤ 100 nM

SMILES: CCOC(=O)NC[C@H]1CC[C@H](n2c([C@@H](C)O)nc3cnc4ccsc4c32)CC1 [Example 82, Ethyl [(trans-4-{2-[(1R)-1-hydroxyethyl]-1H-imidazo[4,5-d]thieno[3,2-b]pyridin-1-yl}cyclohexyl)methyl]carbamate]
- IC50 (human JAK2): ≤ 1000 nM
- JAK2/JAK1 (human JAK1 [1]): >10
- IC50 (human JAK1 [2]): ≤ 100 nM

SMILES: CCCOC(=O)NC[C@H]1CC[C@H](n2c([C@@H](C)O)nc3cnc4ccsc4c32)CC1 [Example 83, Propyl [(trans-4-{2-[(1R)-1-hydroxyethyl]-1H-imidazo[4,5-d]thieno[3,2-b]pyridin-1-yl}cyclohexyl)methyl]carbamate]
- IC50 (human JAK2): ≤ 1000 nM
- JAK2/JAK1 (human JAK1 [1]): >10
- IC50 (human JAK1 [2]): ≤ 100 nM

SMILES: CC(C)OC(=O)NC[C@H]1CC[C@H](n2c([C@@H](C)O)nc3cnc4ccsc4c32)CC1 [Example 84, Isopropyl [(trans-4-{2-[(1R)-1-hydroxyethyl]-1H-imidazo[4,5-d]thieno[3,2-b]pyridin-1-yl}cyclohexyl)methyl]carbamate]
- IC50 (human JAK2): ≤ 1000 nM
- JAK2/JAK1 (human JAK1 [1]): >10
- IC50 (human JAK1 [2]): ≤ 100 nM

— patent US9777017B2, “Tricyclic fused thiophene derivatives as JAK inhibitors” (Incyte Corporation, priority 2012, dated 2017)
